The results in this text go back to patent US4840950A, “4-arylcarbonyl-1-[(4-morpholinyl)-lower-alkyl]-1H-indoles” (Sterling Drug Inc., priority 1987, dated 1989).

The test system of series [1] is acetylcholine-induced abdominal constriction in mice. Kind of series: acetylcholine-induced abdominal constriction test (Ach), antinociceptive activity. The series is classed as in vivo. The following applies: for ED50: Mus musculus, oral administration. The source says:
(§1) The test procedures used to determine the analgesic activity of the compounds have been described in detail in the prior art and are as follows: The acetylcholine-induced abdominal constriction test, which is a primary analgesic screening test designed to measure the ability of a test agent to suppress acetylcholine-induced abdominal constriction in mice, described by Collier et al., Brit. J. Pharmacol, Chemotherap. 32, 295 (1968) and the rotorod performance test, which is a test designed to measure neurotoxicity of a test compound, described by Dunham et al., J. Pharm. Sci. 46, 206-209 (1957).
(§2) The 4-arylcarbonyl-1-[(4-morpholinyl)-lower-alkyl]-1H-indoles of the invention were tested in the acetylcholine-induced abdominal constriction test (Ach), which gives a measure of antinociceptive activity, and the rotorod assay (R.R.), which gives a measure of neurotoxicity and CNS impairment. The results, expressed in terms of the ED50 's obtained on oral administration in the acetylcholine test and as the ratio of the rotorod (R.R.):Ach ED50 's, are given in the following table: […]

Series [2] is described as follows: rotorod performance test (R.R.), neurotoxicity and CNS impairment, as ratio to Ach. The following applies: mouse, in vivo; ratio of rotorod (R.R.):Ach ED50's; Ach ED50 on oral administration.
From the text: as §1, §2

Molecules are shown by their SMILES.

The term ED50 denotes the dose that gives a 50% effect, or the effect in half of the subjects. High values mean weaker potency, low ones greater potency. In series [1], `COc1ccc(C(=O)c2cccc3c2ccn3CCCN2CCOCC2)cc1.Cl` [Ex. 1B, 4-(4-methoxybenzoyl)-1-[3-(4-morpholinyl)propyl]-1H-indole hydrochloride] registered an ED50 of 63 mg/kg. The selectivity ratio in series [2] amounted to 2.8.
`COc1ccc(C(=O)c2cccc3c2ccn3CCN2CCOCC2)cc1.Cl` [Ex. 1A, 4-(4-methoxybenzoyl)-1-[2-(4-morpholinyl)ethyl]-1H-indole hydrochloride]: in series [1] (93%/100(s.c.): at 100 (dose unit not given), s.c.), the “Ach (percent effect)” value worked out at 93%. Moreover, the ED50 in series [1] stood at 46 mg/kg. The selectivity ratio in series [2] turned out to be 3.1.
Regarding `O=C(c1cccc2ccccc12)c1cccc2c1ccn2CCN1CCOCC1` [Ex. 1C, 1-[2-(4-morpholinyl)ethyl]-4-(1-naphthylcarbonyl)-1H-indole p-toluenesulfonate hydrate 3:1], in series [1], the ED50 is 16 mg/kg.
